Consider 15 molecules from ChEMBL document CHEMBL1139812, “Kinesin spindle protein (KSP) inhibitors. Part 8: Design and synthesis of 1,4-diaryl-4,5-dihydropyrazoles as potent inhibitors of the mitotic kinesin KSP” (Bioorg Med Chem Lett, 2007).

The target in series [1] is T1, Kinesin-like protein KIF11 (Homo sapiens, UniProt P52732).
T1 sequence (P52732 whole entry): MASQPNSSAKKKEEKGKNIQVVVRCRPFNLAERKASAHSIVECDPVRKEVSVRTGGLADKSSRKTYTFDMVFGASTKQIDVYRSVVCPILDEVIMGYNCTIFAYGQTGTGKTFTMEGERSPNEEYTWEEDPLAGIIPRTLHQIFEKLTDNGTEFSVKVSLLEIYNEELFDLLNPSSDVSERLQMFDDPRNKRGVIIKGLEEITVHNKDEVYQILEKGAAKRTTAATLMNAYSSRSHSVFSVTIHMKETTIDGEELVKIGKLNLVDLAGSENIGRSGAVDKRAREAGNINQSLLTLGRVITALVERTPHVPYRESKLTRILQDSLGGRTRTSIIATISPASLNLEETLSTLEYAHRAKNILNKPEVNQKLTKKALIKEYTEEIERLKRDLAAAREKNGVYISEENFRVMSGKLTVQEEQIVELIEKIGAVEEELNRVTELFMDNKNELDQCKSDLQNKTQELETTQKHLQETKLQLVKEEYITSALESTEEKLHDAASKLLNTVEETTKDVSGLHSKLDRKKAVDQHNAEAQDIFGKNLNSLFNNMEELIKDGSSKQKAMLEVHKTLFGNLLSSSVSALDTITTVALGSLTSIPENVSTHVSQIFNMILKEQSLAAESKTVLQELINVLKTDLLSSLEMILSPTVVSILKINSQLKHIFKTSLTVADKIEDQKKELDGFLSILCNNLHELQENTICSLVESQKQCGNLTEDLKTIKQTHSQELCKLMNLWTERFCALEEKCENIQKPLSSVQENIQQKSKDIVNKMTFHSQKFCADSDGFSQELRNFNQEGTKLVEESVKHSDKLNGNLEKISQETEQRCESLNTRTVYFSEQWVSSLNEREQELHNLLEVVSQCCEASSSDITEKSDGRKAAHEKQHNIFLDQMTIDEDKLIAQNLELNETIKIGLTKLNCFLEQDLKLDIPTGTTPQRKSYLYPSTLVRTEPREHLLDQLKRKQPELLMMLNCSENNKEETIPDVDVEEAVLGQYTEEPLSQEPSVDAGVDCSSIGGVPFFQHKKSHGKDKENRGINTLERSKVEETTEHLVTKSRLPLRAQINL
Kind of series: Inhibition of KSP-induced nucleolin phosphorylation in cell-based mitotic arrest assay. In kind it is functional.

Series [2] concerns the target Voltage-gated inwardly rectifying potassium channel KCNH2 (Homo sapiens, UniProt Q12809). The series is described as follows: Inhibition of hERG expressed in HEK cells. In kind it is toxicity, cell-based, HEK293. On the technique in general: The hERG channel carries a current that helps repolarise heart muscle cells.
The nature of series [3]: Protein binding in mouse plasma. The series is classed as ADME, cell-free. The conditions noted are these: read-out: PB (converted).
The subject of the next series is A2780. Kind of series: Mitotic arrest in human A2780 cells xenografted nude mouse assessed as induction of phospho-histone H3 at 3.5 mg/kg. In kind it is functional. A general note: Xenograft models place foreign cells or tissue in a host animal.
Series [4] in a line: Solubility at pH 4. In kind it is physicochemical. Conditions: buffer.
The subject of the next series is KB 3-1. Kind of series: Ratio of IC50 for KB-V-1 cells to IC50 for KB-3-1 cells. In kind it is functional, Homo sapiens.
Series [5] has as its target T1, Kinesin-like protein KIF11. The series is described as follows: Inhibition of kinesin spindle protein by ATPase assay.
For a further series, the species on record is Homo sapiens. The series is described as follows: Protein binding in human plasma. The conditions noted are these: read-out: PB (converted).

Chain of Voltage-gated inwardly rectifying potassium channel KCNH2 (Q12809 whole entry): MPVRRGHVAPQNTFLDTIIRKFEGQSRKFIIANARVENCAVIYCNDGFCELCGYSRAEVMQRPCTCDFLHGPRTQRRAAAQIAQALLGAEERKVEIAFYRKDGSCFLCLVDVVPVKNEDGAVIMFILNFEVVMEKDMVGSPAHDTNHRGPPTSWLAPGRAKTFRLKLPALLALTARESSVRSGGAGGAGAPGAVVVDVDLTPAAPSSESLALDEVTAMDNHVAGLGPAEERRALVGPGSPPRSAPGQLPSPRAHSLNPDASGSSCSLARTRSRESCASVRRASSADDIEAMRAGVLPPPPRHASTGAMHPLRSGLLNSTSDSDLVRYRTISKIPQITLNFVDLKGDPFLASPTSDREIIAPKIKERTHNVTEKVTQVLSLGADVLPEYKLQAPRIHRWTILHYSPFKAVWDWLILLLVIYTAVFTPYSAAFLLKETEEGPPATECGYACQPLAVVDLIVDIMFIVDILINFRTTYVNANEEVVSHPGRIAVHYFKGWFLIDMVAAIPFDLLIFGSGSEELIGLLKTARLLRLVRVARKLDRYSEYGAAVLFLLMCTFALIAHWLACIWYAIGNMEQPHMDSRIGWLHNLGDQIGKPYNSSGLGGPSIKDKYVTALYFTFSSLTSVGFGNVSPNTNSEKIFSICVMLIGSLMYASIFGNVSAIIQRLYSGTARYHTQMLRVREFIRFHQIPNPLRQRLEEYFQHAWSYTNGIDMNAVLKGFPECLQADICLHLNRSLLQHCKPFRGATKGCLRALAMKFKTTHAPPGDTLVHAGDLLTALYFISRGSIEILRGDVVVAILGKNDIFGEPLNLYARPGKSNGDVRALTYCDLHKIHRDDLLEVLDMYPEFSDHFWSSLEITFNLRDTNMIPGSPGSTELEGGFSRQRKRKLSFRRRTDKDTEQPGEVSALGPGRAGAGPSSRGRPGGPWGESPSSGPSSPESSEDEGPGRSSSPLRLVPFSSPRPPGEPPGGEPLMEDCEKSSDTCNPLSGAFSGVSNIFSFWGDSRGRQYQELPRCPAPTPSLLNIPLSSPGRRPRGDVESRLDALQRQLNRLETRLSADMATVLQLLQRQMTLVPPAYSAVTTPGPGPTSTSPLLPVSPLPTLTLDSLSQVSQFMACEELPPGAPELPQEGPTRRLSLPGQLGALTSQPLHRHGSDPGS

Usually EC50 stands for the concentration needed to bring the measured effect to its halfway point. A low value points to an effect from little substance. By IC50 is commonly meant the concentration that inhibits the measured activity by half. Read a high IC50 as lower potency. A word on the EC99: it is the concentration at which the effect reaches the 99% level. Broadly, the solubility is the dissolved amount per volume that the medium holds. Read a high solubility as much dissolved substance. As for `CC(=O)C1=NN(c2cc(C)ccc2F)C[C@@]1(CCCN(C)C)c1ccccc1`, the EC50 in series [1] was 0.0032 µM. The values for the IC50 in series [2] and in series [5] were 3.04 µM and 0.0002 µM, respectively. Further, the fraction unbound in series [3] is 0.07; in the series filed under Homo sapiens it was 0.04. Further, the EC99 with A2780 is recorded as 67 nM. The same molecule had a solubility in series [4] of over 4 mg/mL. The “Ratio IC50” value in the series with KB 3-1 is given as 1.6.
Consider `CC(=O)C1=NN2c3cc(F)ccc3OC[C@H]2[C@@]1(CCCN1CCN(C(C)=O)CC1)c1ccccc1`, for which a half-maximal response in series [1] (EC50) required 0.005 µM. Further, the 99% effect concentration (EC99) with A2780 amounted to 100 nM. The solubility in series [4] was over 4 mg/mL.
In turn, `CC(=O)C1=NN(c2cc(F)ccc2F)CC1(CCCN(C)Cc1cc(C)no1)c1ccccc1` (racemic) returned an EC50 in series [1] of 0.567 µM. 0.004 µM corresponded to half-maximal inhibition in series [5] (IC50).
Take `CC(=O)C1=NN(c2cc(F)ccc2F)CC1(CCCN1CCOCC1)c1ccccc1` (racemic): in series [1], the EC50 was found to be 0.053 µM. Further, the midpoint of inhibition in series [5], the IC50, lay at 0.0042 µM.
`CC(=O)C1=NN(c2cc(F)ccc2F)CC1(CCCN1CCCC1)c1ccccc1` (racemic) showed an EC50 in series [1] of 0.015 µM. This molecule also registered an IC50 in series [5] of 0.0038 µM.
In turn, `CC(=O)C1=NN(c2cc(F)ccc2F)CC1(CCCN1CC2CC1CO2)c1ccccc1` (racemic) came in with an EC50 in series [1] of 0.011 µM. This molecule came in with an IC50 in series [5] of 0.0012 µM.
Take `CC(=O)C1=NN(c2cc(F)ccc2F)CC1(CCCN(C)C)c1ccccc1` (racemic): the EC50 in series [1] came out at 0.0094 µM. In addition, the IC50 in series [5] was determined as 0.0021 µM.
In series [1], `CC(=O)C1=NN(c2cc(Cl)ccc2F)CC1(CCCN1CCN(C(C)=O)CC1)c1ccccc1` (racemic) had an EC50 of 0.046 µM. This molecule came in with an IC50 in series [5] of 0.0039 µM.
In turn, `CC(=O)C1=NN(c2cc(C(F)(F)F)ccc2F)CC1(CCCN1CCN(C(C)=O)CC1)c1ccccc1` (racemic) gave an EC50 in series [1] of 0.208 µM. For the same molecule, the IC50 in series [5] stood at 0.0101 µM.
As to `CC(=O)C1=NN(c2cc(F)ccc2F)CC1(CCCN1CC(F)C1)c1ccccc1` (racemic), the EC50 in series [1] was 0.04 µM. In addition, half-maximal inhibition in series [5] (IC50) required 0.0052 µM.
`CC(=O)C1=NN(c2cc(F)ccc2F)CC1(CCCN1CCN(C(C)=O)CC1)c1ccccc1` (racemic) yielded an EC50 in series [1] of 0.078 µM. This molecule also returned an IC50 in series [5] of 0.0038 µM.
The molecule `CC(=O)C1=NN(c2cc(Br)ccc2F)CC1(CCCN1CCN(C(C)=O)CC1)c1ccccc1` (racemic) gave an EC50 in series [1] of 0.038 µM. Further, in series [5], inhibition was half-maximal at 0.0047 µM (IC50).
The molecule `CC(=O)C1=NN(c2ccccc2F)CC1(CCCN1CCN(C(C)=O)CC1)c1ccccc1` (racemic) showed an EC50 in series [1] of 0.368 µM. The molecule also returned an IC50 in series [5] of 0.0218 µM.
The molecule `CC(=O)C1=NN(c2cc(F)ccc2F)CC1(CCCN1CCS(=O)(=O)CC1)c1ccccc1` (racemic) displayed an EC50 in series [1] of 0.138 µM. In series [5], this molecule gave an IC50 of 0.0165 µM.
The like results for `CC(=O)C1=NN(c2cc(C)ccc2F)CC1(CCCN1CCN(C(C)=O)CC1)c1ccccc1` (racemic) were, in that order, 0.027 µM and 0.002 µM.
